“And” between values parts separate entries of the source, which are not always exact repeats. Equal values may be shown once.
Biological target: T1, PfCRT^Dd2_F145I (Plasmodium falciparum, UniProt Q8IBZ9, A220S/F145I/I356T/K76T/M74I/N326S/N75E/Q271E/R371I)
T1 construct: expressed in transfected cells; host or cells: Xenopus laevis oocytes injected with in vitro transcribed RNA (pSP64T)
T1 sequence (Q8IBZ9 1-424 M74I/N75E/K76T/F145I/A220S/Q271E/N326S/I356T/R371I): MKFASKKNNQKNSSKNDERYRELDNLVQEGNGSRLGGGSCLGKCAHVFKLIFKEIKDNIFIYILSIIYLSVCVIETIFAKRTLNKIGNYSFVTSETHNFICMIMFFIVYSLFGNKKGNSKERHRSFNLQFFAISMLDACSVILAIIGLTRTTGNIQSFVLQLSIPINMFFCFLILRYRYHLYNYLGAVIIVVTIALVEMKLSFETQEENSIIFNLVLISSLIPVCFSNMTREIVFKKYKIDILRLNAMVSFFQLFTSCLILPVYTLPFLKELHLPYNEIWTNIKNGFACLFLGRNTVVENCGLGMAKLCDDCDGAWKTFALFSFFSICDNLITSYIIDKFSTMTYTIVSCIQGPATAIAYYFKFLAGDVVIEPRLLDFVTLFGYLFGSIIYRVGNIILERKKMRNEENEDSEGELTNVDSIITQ
Assay: Competition kinetics of drug transport (radiolabeled substrate plus cold inhibitor), PfCRT^Dd2_F145I-expressing oocytes
Type: cell-based
Experimental: To further characterize the kinetic relationship between CQ and PPQ, we performed a series of competition reactions. To this end, water-injected oocytes and PfCRT-expressing oocytes were incubated in medium containing one of seven concentrations of radio-labeled CQ and one of six concentrations of cold PPQ for 60 min before the amount of radio-labeled CQ uptake was determined. The rate of PfCRT-mediated CQ uptake was calculated for each condition by subtracting the corresponding value obtained for water-injected oocytes from those of PfCRT-expressing oocytes. The results were analyzed as a function of the CQ concentration (Fig 4A) and 16 different models of substrate competition were globally fit to the data by the least-squares method, using Python. The models were ranked, according to their Akaike information criterion difference (ΔAICC) and their Akaike weight (Fig 4B), with the most plausible model being the one with the lowest AICC (ΔAICC = 0) and the highest Akaike weight.
A complementary set of experiments was undertaken to investigate the kinetic mechanism by which PfCRT^Dd2_F145I accepts CQ and PPQ (Fig 6). […] These included a global fit of the substrate competition data to the 16 kinetic models (Fig 6), analysis of the secondary plots (Vmax,app and Vmax,app/KM,app as a function of the inhibitor concentration) (Fig 7A), a fractional velocity plot analysis (Fig 7B) and a comparison of the experimental data with the modelled data using the noncompetitive inhibition equation (Fig 7C to 7F). […] The fractional velocity plot illustrated the partial character of the noncompetitive inhibition mechanism by yielding a partiality factor β^CQ = 0.31 ± 0.04, by which PPQ reduces the transport velocity of CQ (Fig 7B). […] A 3D model of the kinetics between PfCRT^Dd2_F145I, CQ and PPQ, and analyses of the residuals as a function of substrate and inhibitor concentrations confirmed that the model was also an appropriate explanation for the mutant transporter (Fig 7C to 7F).
Drug transport assays were performed as previously described. Briefly, measurements of radiolabeled drug uptake were made over 1 h, unless otherwise specified. […] Where specified, one or more unlabeled drugs were also present at the indicated concentrations. The direction of drug transport in the assays is from the extracellular medium (pH 6) into the oocyte cytosol (pH 7.2), which corresponds to the efflux of CQ or PPQ from the acidic digestive vacuole (pH 5.2) into the parasite cytosol (pH 7.2). The uptake assays were terminated by removing the oocytes from the reaction medium and washing them three times with 2 mL of ice-cold ND96 buffer. Each oocyte was transferred to a separate scintillation vial and lysed by the addition of 200 μL of a 5% SDS solution. The radioactivity in the sample was measured using a liquid scintillation analyser Tri-Carb 4910 TR (PerkinElmer). Water-injected oocytes were analyzed in parallel as a negative control. The buffer from each condition was measured in duplicate in parallel to each experiment to transform counts per minute into pmol of drug. Drug uptake attributable to PfCRT was determined by subtracting the background uptake from water-injected oocytes from that of PfCRT-expressing oocytes. In all cases, at least three independent experiments were performed on oocytes from different frogs, and for each condition in an experiment, measurements were made from 10 oocytes per treatment.
The following equations were adopted from Segel (1993), and the reader is referred to that text for the assumptions made in the author’s approach in the derivation of each equation [31]. The concentration of substrate is denoted as [S1] and the concentration of the inhibiting substrate is denoted as [S2]. KS1 and KS2 are the dissociation constants for the respective substrate-protein complexes.
Analyses of the kinetic data were performed using SigmaPlot version 13.0 and Python. […]

Clc1ccc2c(N3CCN(CCCN4CCN(c5ccnc6cc(Cl)ccc56)CC4)CC3)ccnc2c1 [PPQ, piperaquine]
PfCRTDd2_F145I-mediated PPQ transport (10 µM PPQ, 0 µM CQ): 11.21 pmol oocyte-1 h-1 and 11.88 pmol oocyte-1 h-1 and 9.04 pmol oocyte-1 h-1
PfCRTDd2_F145I-mediated PPQ transport (10 µM PPQ, 50 µM CQ): 9.4 pmol oocyte-1 h-1 and 8.02 pmol oocyte-1 h-1 and 11.57 pmol oocyte-1 h-1
PfCRTDd2_F145I-mediated PPQ transport (10 µM PPQ, 125 µM CQ): 7.93 pmol oocyte-1 h-1 and 10.99 pmol oocyte-1 h-1 and 8.58 pmol oocyte-1 h-1
PfCRTDd2_F145I-mediated PPQ transport (10 µM PPQ, 200 µM CQ): 8.51 pmol oocyte-1 h-1 and 7.12 pmol oocyte-1 h-1 and 10.43 pmol oocyte-1 h-1
PfCRTDd2_F145I-mediated PPQ transport (10 µM PPQ, 400 µM CQ): 7.41 pmol oocyte-1 h-1 and 6.45 pmol oocyte-1 h-1
PfCRTDd2_F145I-mediated PPQ transport (50 µM PPQ, 25 µM CQ): 33.88 pmol oocyte-1 h-1 and 40.73 pmol oocyte-1 h-1 and 51.89 pmol oocyte-1 h-1
PfCRTDd2_F145I-mediated PPQ transport (50 µM PPQ, 50 µM CQ): 40.89 pmol oocyte-1 h-1 and 44.12 pmol oocyte-1 h-1 and 39.8 pmol oocyte-1 h-1
PfCRTDd2_F145I-mediated PPQ transport (50 µM PPQ, 125 µM CQ): 36.42 pmol oocyte-1 h-1 and 31.75 pmol oocyte-1 h-1 and 38.13 pmol oocyte-1 h-1
PfCRTDd2_F145I-mediated PPQ transport (50 µM PPQ, 400 µM CQ): 17.03 pmol oocyte-1 h-1 and 21.16 pmol oocyte-1 h-1
PfCRTDd2_F145I-mediated PPQ transport (100 µM PPQ, 0 µM CQ): 60.49 pmol oocyte-1 h-1 and 74.22 pmol oocyte-1 h-1 and 56.91 pmol oocyte-1 h-1
PfCRTDd2_F145I-mediated PPQ transport (100 µM PPQ, 25 µM CQ): 59.02 pmol oocyte-1 h-1 and 57.16 pmol oocyte-1 h-1 and 56.63 pmol oocyte-1 h-1
PfCRTDd2_F145I-mediated PPQ transport (100 µM PPQ, 50 µM CQ): 63 pmol oocyte-1 h-1 and 53.26 pmol oocyte-1 h-1 and 51.28 pmol oocyte-1 h-1
PfCRTDd2_F145I-mediated PPQ transport (100 µM PPQ, 125 µM CQ): 52.64 pmol oocyte-1 h-1 and 47.96 pmol oocyte-1 h-1 and 53 pmol oocyte-1 h-1
PfCRTDd2_F145I-mediated PPQ transport (100 µM PPQ, 200 µM CQ): 45.31 pmol oocyte-1 h-1 and 44.84 pmol oocyte-1 h-1 and 60.71 pmol oocyte-1 h-1
PfCRTDd2_F145I-mediated PPQ transport (100 µM PPQ, 400 µM CQ): 44.06 pmol oocyte-1 h-1 and 56.54 pmol oocyte-1 h-1
PfCRTDd2_F145I-mediated PPQ transport (200 µM PPQ, 25 µM CQ): 102.24 pmol oocyte-1 h-1 and 78.79 pmol oocyte-1 h-1 and 91.29 pmol oocyte-1 h-1
PfCRTDd2_F145I-mediated PPQ transport (200 µM PPQ, 50 µM CQ): 94.74 pmol oocyte-1 h-1 and 73.08 pmol oocyte-1 h-1 and 99.27 pmol oocyte-1 h-1
PfCRTDd2_F145I-mediated PPQ transport (200 µM PPQ, 125 µM CQ): 78.46 pmol oocyte-1 h-1 and 108.53 pmol oocyte-1 h-1 and 73.37 pmol oocyte-1 h-1
PfCRTDd2_F145I-mediated PPQ transport (200 µM PPQ, 400 µM CQ): 85.32 pmol oocyte-1 h-1 and 58.78 pmol oocyte-1 h-1
PfCRTDd2_F145I-mediated PPQ transport (300 µM PPQ, 0 µM CQ): 115.45 pmol oocyte-1 h-1 and 117.23 pmol oocyte-1 h-1
PfCRTDd2_F145I-mediated PPQ transport (300 µM PPQ, 25 µM CQ): 115.11 pmol oocyte-1 h-1 and 88.35 pmol oocyte-1 h-1 and 102.98 pmol oocyte-1 h-1
PfCRTDd2_F145I-mediated PPQ transport (300 µM PPQ, 50 µM CQ): 85.96 pmol oocyte-1 h-1 and 103.73 pmol oocyte-1 h-1 and 93.02 pmol oocyte-1 h-1
PfCRTDd2_F145I-mediated PPQ transport (300 µM PPQ, 125 µM CQ): 84.14 pmol oocyte-1 h-1 and 103.07 pmol oocyte-1 h-1 and 81.24 pmol oocyte-1 h-1
PfCRTDd2_F145I-mediated PPQ transport (300 µM PPQ, 200 µM CQ): 75.68 pmol oocyte-1 h-1 and 80.62 pmol oocyte-1 h-1 and 99.18 pmol oocyte-1 h-1
PfCRTDd2_F145I-mediated PPQ transport (300 µM PPQ, 400 µM CQ): 77.19 pmol oocyte-1 h-1 and 102 pmol oocyte-1 h-1
PfCRTDd2_F145I-mediated PPQ transport (400 µM PPQ, 0 µM CQ): 130.32 pmol oocyte-1 h-1 and 101.99 pmol oocyte-1 h-1
PfCRTDd2_F145I-mediated PPQ transport (400 µM PPQ, 25 µM CQ): 115.19 pmol oocyte-1 h-1 and 112.21 pmol oocyte-1 h-1 and 107.93 pmol oocyte-1 h-1
PfCRTDd2_F145I-mediated PPQ transport (400 µM PPQ, 50 µM CQ): 86.8 pmol oocyte-1 h-1 and 110.06 pmol oocyte-1 h-1 and 116.13 pmol oocyte-1 h-1
PfCRTDd2_F145I-mediated PPQ transport (400 µM PPQ, 125 µM CQ): 93.73 pmol oocyte-1 h-1 and 100.31 pmol oocyte-1 h-1 and 96.89 pmol oocyte-1 h-1
PfCRTDd2_F145I-mediated PPQ transport (400 µM PPQ, 200 µM CQ): 75.94 pmol oocyte-1 h-1 and 96.5 pmol oocyte-1 h-1 and 106.38 pmol oocyte-1 h-1
PfCRTDd2_F145I-mediated PPQ transport (400 µM PPQ, 400 µM CQ): 105.94 pmol oocyte-1 h-1 and 73.74 pmol oocyte-1 h-1
PfCRTDd2_F145I-mediated PPQ transport (500 µM PPQ, 0 µM CQ): 124.15 pmol oocyte-1 h-1 and 149.83 pmol oocyte-1 h-1
PfCRTDd2_F145I-mediated PPQ transport (500 µM PPQ, 25 µM CQ): 134.09 pmol oocyte-1 h-1 and 105.12 pmol oocyte-1 h-1 and 107.54 pmol oocyte-1 h-1
PfCRTDd2_F145I-mediated PPQ transport (500 µM PPQ, 50 µM CQ): 102.67 pmol oocyte-1 h-1 and 147.39 pmol oocyte-1 h-1 and 78.85 pmol oocyte-1 h-1
PfCRTDd2_F145I-mediated PPQ transport (500 µM PPQ, 125 µM CQ): 105.59 pmol oocyte-1 h-1 and 76.21 pmol oocyte-1 h-1 and 122.33 pmol oocyte-1 h-1
PfCRTDd2_F145I-mediated PPQ transport (500 µM PPQ, 200 µM CQ): 62.06 pmol oocyte-1 h-1 and 101.24 pmol oocyte-1 h-1
